Source: patent publication US9351950B2, “Method for preventing or treating allergic disease using capsiate or salt thereof” (CATHOLIC UNIVERSITY OF KOREA INDUSTRY-ACADEMIC COOPERATION …, priority 2014, dated 2016)

Assays:
[1] = system: activated human mast cell line (HMC-1 cells); test: Real-time PCR of cytokine transcripts in activated HMC-1 cells; assay type: cell-based; settings: 50 μM, 37° C., 4 hours; HMC-1 cells activated with A23187 and PMA; normalized with GAPDH
Experimental: HMC-1 cells were grown in IMDM media supplemented with 100 U/ml of penicillin, 100 µg/ml of streptomycin, and 10% heat-inactivated FBS in an incubator containing 5% CO2 at 37° C. HMC-1 cells were activated by treatment with A23187 and PMA
In order to understand the inhibitory effect of capsiate on the increase of cytokines in activated HMC-1 cells, HMC-1 cells were treated with 50 μM of capsiate and capsaicin at 37° C. for 4 hours, respectively, and the transcript expressions of cytokines IL-6 and TNF-α were confirmed through real-time PCR. Total RNA was isolated from HMC-1 cells with RNeasy Mini kit (Quiagen, Valencia, Calif., USA) and the first strand of cDNA was synthesized using QuantTect Reverse Transcription kit (Quiagen, Germany). Real-time PCR was performed using KAPA SYBR fast qPCR kit (KAPA Blosystems, Woburn, Mass., USA). The following parameters were used for the PCR: 95° C. for 10 minutes, followed by 50 cycles of 95° C. for 20 seconds, 55° C. for 30 seconds, and 72° C. for 20 seconds. The gene expression levels were normalized with GAPDH expression level. The primer sets for IL-6 and TNF-α were purchased from QIAGEN.

[2] = system: activated human mast cell line (HMC-1 cells); test: ELISA of cytokines in activated HMC-1 cells; assay type: cell-based; settings: 50 μM, 37° C., 16 hours
Experimental: (§1) HMC-1 cells were grown in IMDM media supplemented with 100 U/ml of penicillin, 100 µg/ml of streptomycin, and 10% heat-inactivated FBS in an incubator containing 5% CO2 at 37° C. HMC-1 cells were activated by treatment with A23187 and PMA In order to understand the inhibitory effect of capsiate on the increase of cytokines in activated HMC-1 cells, HMC-1 cells were treated with 50 μM of capsiate and capsaicin at 37° C. for 16 hours, and the expression levels of cytokines IL-6 and TNF-α were confirmed through ELISA assay. Capture antibody was added in ELISA plate and incubated overnight 4° C. Next day, the capture antibody was washed with PBS/Tween buffer, and blocking buffer was added. After 1 hr incubation at room temperature, the blocking buffer was washed out and standard or sample supernatant was added. The plate was incubated overnight at 4° C. and washed out. After washing, detection antibody was added and incubated for 1 hr at room temperature, followed by washing the plate. Streptavidin-HRP was added to each well, incubated at room temperature for 30 mins, and then the plate was washed. TMB was used as a substrate. After TMB was added to the plate, stop solution was added to stop color development, and the plate was read using ELISA reader.

[3] = system: activated mouse bone marrow derived mast cells (BMMCs); test: Real-time PCR of cytokine transcripts in activated BMMCs; assay type: cell-based; settings: 50 μM, 37° C., 4 hours; BMMCs activated by anti-mouse DNP-IgE and DNP-HSA
Experimental: (§2) Bone marrow cells were obtained from tibias and femurs of approximately 8 to 10 week old C57/BL/6 mice and cultured in RPMI 1640 media supplemented with 10% FCS, 100 U/ml of penicillin, 100 μg/ml of streptomycin in the presence of mIL-3 (10 ng/ml) and mSCF (50 ng/ml) for 6 weeks in an incubator containing 5% CO2 at 37° C. […] BMMC were activated by 1 μg/ml of anti-mouse DNP-IgE for overnight, followed by the treatment with 10 ng/ml of DNP-HSA for 6 hr to 24 hr.
In order to understand the inhibitory effect of capsiate on the increase in cytokines in activated BMMCs, BMMCs were treated with 50 μM of capsiate at 37° C. for 4 hours, and the transcript expressions of cytokines IL-6 and TNF-α were confirmed through real-time PCR. Total RNAs were isolated from […] with RNeasy Mini kit (Quiagen, Valencia, Calif., USA) and the first strand of cDNA was synthesized using QuantTect Reverse Transcription kit (Quiagen, Germany). Real-time PCR was performed using KAPA SYBR fast qPCR kit (KAPA Blosystems, Woburn, Mass., USA). The following parameters were used for the PCR: 95° C. for 10 mins, followed by 50 cycles of 95° C. for 20 s, 55° C. for 30 s, and 72° C. for 20s. The gene expression levels were normalized with GAPDH expression level. The primer sets for IL-6 and TNF-α were purchased from QIAGEN.

[4] = system: activated mouse bone marrow derived mast cells (BMMCs); test: ELISA of cytokines in activated BMMCs; assay type: cell-based; settings: 50 μM, 37° C., 16 hours
Experimental: as §2
as §1, with “In order” for “HMC-1 cells were grown in IMDM media supplemented with 100 U/ml of penicillin, 100 µg/ml of streptomycin, and 10% heat-inactivated FBS in an incubator containing 5% CO2 at 37° C. HMC-1 cells were activated by treatment with A23187 and PMA In order”, “in activated BMMCs, BMMCs were treated” for “in activated HMC-1 cells, HMC-1 cells were treated”, “of capsiate at 37°” for “of capsiate and capsaicin at 37°”, “Capture antibody for IL-6 or TNF-α was added” for “Capture antibody was added”, “detection antibody for IL-6 and TNF-α was added” for “detection antibody was added”

[5] = system: atopic dermatitis induced by 2,4-dinitro-1-fluorobenzene (DNFB) in mice; test: Atopic dermatitis induced by DNFB in mice, histological staining and epidermal thickness; assay type: in vivo; settings: 1 mM capsiate in acetone coated 1 hour before DNFB treatment
Experimental: (§3) DNFB was sensitized by being diluted to 0.15% with a vehicle in which acetone and olive oil are mixed in a ratio of 3:1. Atopic dermatitis was induced by treating twice with a 0.2% DNFB solution. The capsiate-treated group was coated with 1 mM capsiate dissolved in acetone, 1 hour before DNFB treatment (See FIG. 5).
After being cut with induced atopic dermatitis, the skin tissue was fixed in 4% formaldehyde for 24 hours, followed by washing and dehydration, and then a […] skin section was prepared using a paraffin block. The tissue section was deparaffinized with xylene, immerged in alcohol, and then stained with hematoxyline and eosin. After the staining, the tissue was observed using a phase contrast microscope. As for the dermal thickness, the dermal thicknesses at five places on the tissue image were measured, and the mean and standard deviation thereof were obtained and shown on a graph.

serum IgE = test: Serum IgE level (ELISA) in atopic dermatitis mouse model induced by DNFB; assay type: in vivo, mice
Experimental: as §3
IgE capture antibody was added in the plate, and allowed to stand at 4° C. overnight. The next day, the capture antibody was washed with PBS/Tween buffer, and blocking buffer was added, followed by reaction at room temperature for 1 hour. After the blocking buffer was washed out, IgE standard and mouse serum were added, followed by standing at 4° C. overnight. The next day, after washing was performed, the IgE detection antibody was added, followed by reaction at room temperature for 1 hour. After washing was again performed, Streptavidin-HRP was added, followed by a reaction at room temperature for 30 minutes. After washing was again performed, TMB as a substrate was added. Then, a stop solution was added, and the absorbance was measured using an ELISA reader.

[6] = system: atopic dermatitis sites of mice; test: Cytokine expression (real-time PCR) in mouse atopic dermatitis sites; assay type: in vivo; settings: atopic dermatitis site, 1 mM capsiate, dosing as in example 3-1
Experimental: as §3
(§4) The cytokine inhibitory effect of capsiate was verified at atopic dermatitis sites of mice. The dosing concentrations of DNFB and capsiate were the same as in example <3-1> above, and the transcript expressions of cytokines IL-4 and TSLP were confirmed through real-time PCR. Real-time PCR conditions were established by the same method as in example <1-2> above, and the primer set was purchased from QIAGEN.

[7] = system: atopic dermatitis sites of mice; test: Chemokine expression (real-time PCR) in mouse atopic dermatitis sites; assay type: in vivo; settings: atopic dermatitis site, 1 mM capsiate, dosing as in example 3-1
Experimental: as §3
as §4, with “chemokine” for “cytokine”, “in” for “was verified at”, “mice was verified.” for “mice.”, “chemokines CCL11, CCL17,” for “cytokines IL-4”, “CCL22” for “TSLP”

[8] = system: Th2 cell differentiation, lymph node; test: Th2 cell differentiation in lymph node of atopic dermatitis mouse model; assay type: in vivo, mice; settings: lymph node cells; intracellular staining CD4, IL-4, IL-5; dosing as in example 3-1
Experimental: as §3
(§5) After lymphocytes were taken out from mice, a single cell suspension was prepared, and then 3 μg/ml of anti-CD28 antibody was added in the plate to which anti-CD3 antibody adheres, followed by incubation for 3 days. On the third day, PMA (20 ng/ml) and ionomycin (1 μM) were added, followed by incubation for 5 hours. The cells were collected, and then subjected to intracellular staining using Cytofix/Cytoperm kit (BD bioscience) and anti-CD4 antibody, anti-IL-4 antibody, and anti-IL-5 antibody (BD bioscience). The dosing concentrations of DNFB and capsiate were the same as in example <3-1> above.

[9] = system: Th2 cell differentiation, spleen; test: Th2 cell differentiation in spleen of atopic dermatitis mouse model; assay type: in vivo, mice; settings: spleen cells; intracellular staining CD4, IL-4, IL-5; dosing as in example 3-1
Experimental: as §3
as §5, with “the spleen was” for “lymphocytes were”

[10] = system: passive cutaneous anaphylaxis (PCA); test: Passive cutaneous anaphylaxis (PCA): capillary vessel permeability and mouse ear thickness; assay type: in vivo
Experimental: The passive cutaneous anaphylaxis inhibitory effect of capsiate was verified by measuring capillary vessel permeability and mouse ear thickness. The capillary vessel permeability was verified by intravenously injecting Evan's blue, which is a blue staining agent, mixed with antigen, and quantifying the staining agent coming out from ear capillary vessels to the skin tissue. The quantification was conducted by cutting the ear tissue, putting the cut ear tissue in formamide, performing incubation at 65° C. for 16 hours, extracting Evan's blue in the ear tissue, and measuring the absorbance. The mouse ear thickness was measured using D15 ear thickness gauge.

[11] = system: BMCC induced with IgE antigen; test: Pro-inflammatory cytokine expression (real-time PCR) in BMCC induced with IgE antigen; assay type: cell-based, mouse
From the text: The inflammatory cytokine expression inhibitory effect of capsiate was verified in BMCC induced with IgE antigen. The transcript expressions of cytokines IL-1β, IL-6, and TNF-α were verified through real-time PCR. Real-time PCR conditions were established by the same method as in example <1-2> above, and the primer set was purchased from QIAGEN.

Row | SMILES | transcript expression of IL-6 (real-time PCR) [1] | transcript expression of TNF-α (real-time PCR) [1] | expression level of IL-6 (ELISA) [2] | expression level of TNF-α (ELISA) [2] | transcript expression of IL-6 (real-time PCR) [3] | transcript expression of TNF-α (real-time PCR) [3] | expression level of IL-6 (ELISA) [4] | expression level of TNF-α (ELISA) [4] | other results
1 | COc1cc(CNC(=O)CCCC/C=C/C(C)C)ccc1O [capsaicin, reference compound] | increased | increased | increased | increased | increased | increased | increased | increased | –
2 | COc1cc(COC(=O)CCCC/C=C/C(C)C)ccc1O [capsiate] | significantly decreased | significantly decreased | significantly decreased | significantly decreased | significantly decreased | significantly decreased | significantly decreased | significantly decreased | atopic dermatitis induced by DNFB in the mice [5]: inhibited; dermal thickness increased by DNFB ([5]; H&E stained skin section): decreased; level of serum IgE increased due to DNFB (serum IgE): decreased; transcript expression of IL-4 increased by DNFB [6]: decreased; transcript expression of TSLP increased by DNFB [6]: decreased; transcript expression of CCL11 increased by DNFB [7]: decreased; transcript expression of CCL17 increased by DNFB [7]: decreased; transcript expression of CCL22 increased by DNFB [7]: decreased; Th2 cell differentiation increased by DNFB at the lymph node [8]: inhibited; Th2 cell differentiation increased by DNFB in the spleen [9]: inhibited; capillary vessel permeability increased by DNP IgE ([10]; Evan's blue extracted from mouse ear tissue, absorbance): inhibited; ear edema increased by DNP IgE ([10]; mouse ear thickness, ear thickness gauge): inhibited; transcript expression of IL-1β increased by IgE antigen [11]: decreased; transcript expression of IL-6 increased by IgE antigen [11]: decreased; transcript expression of TNF-α increased by IgE antigen [11]: decreased
